pIC50: −log10 of the molar value.
Tests used:
MDA-MB-134-VI = assay: cells; assay type: functional, cell-based, Homo sapiens; conditions: Homo sapiens, MDA-MB-134-VI
Description: SANGER: Inhibition of human MDA-MB-134-VI cell growth in a cell viability assay.

EFO-27 = assay: cells; assay type: functional, cell-based; conditions: Homo sapiens;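 further: growth inhibition of EFO-27 cells, read out with a cell viability assay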
Description: SANGER: Inhibition of human EFO-27 cell growth in a cell viability assay.

SW1463 = assay: cells; assay type: functional, cell-based; conditions: Homo sapiens;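 further: growth inhibition of SW1463 cells, determined with a cell viability assay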
Description: SANGER: Inhibition of human SW1463 cell growth in a cell viability assay.

BOKU = assay: cells; assay type: functional, cell-based; conditions: Homo sapiens;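 further: growth inhibition of the human BOKU cell line, read out by a cell viability assay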
Description: SANGER: Inhibition of human BOKU cell growth in a cell viability assay.

H4 = assay: cells; assay type: functional, cell-based; conditions: Homo sapiens
Description: SANGER: Inhibition of human H4 cell growth in a cell viability assay.

S-117 = assay: cells; assay type: functional, cell-based; conditions: Homo sapiens
Description: SANGER: Inhibition of human S-117 cell growth in a cell viability assay.

C-33-A = assay: cells; assay type: functional, cell-based; conditions: Homo sapiens;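 further: cell viability assay measuring growth inhibition of C-33-A cells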
Description: SANGER: Inhibition of human C-33-A cell growth in a cell viability assay.

NCI-H2052 = assay: cells; assay type: functional, cell-based; conditions: Homo sapiens;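 further: growth inhibition of NCI-H2052 cells, read out with a cell viability assay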
Description: SANGER: Inhibition of human NCI-H2052 cell growth in a cell viability assay.

NCI-H1694 = assay: cells; assay type: functional, cell-based, Homo sapiens; conditions: Homo sapiens, NCI-H1694;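 further: cell viability assay measuring inhibition of growth in human NCI-H1694 cells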
Description: SANGER: Inhibition of human NCI-H1694 cell growth in a cell viability assay.

SIMA = assay: cells; assay type: functional, cell-based, Homo sapiens; conditions: Homo sapiens, SIMA;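 further: growth inhibition of SIMA cells, measured with a cell viability readout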
Description: SANGER: Inhibition of human SIMA cell growth in a cell viability assay.

NCI-H1693 = assay: cells; assay type: functional, cell-based; conditions: Homo sapiens;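 further: growth inhibition of the human cell line, read out with a cell viability assay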
Description: SANGER: Inhibition of human NCI-H1693 cell growth in a cell viability assay.

JIYOYE = assay: cells; assay type: functional, cell-based, Homo sapiens; conditions: Homo sapiens, JIYOYE
Description: SANGER: Inhibition of human JiyoyeP-2003 cell growth in a cell viability assay.

NCI-H1573 = assay: cells; assay type: functional, cell-based; conditions: Homo sapiens;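 further: growth inhibition of NCI-H1573 cells, read out with a cell viability assay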
Description: SANGER: Inhibition of human NCI-H1573 cell growth in a cell viability assay.

NCI-H1993 = assay: cells; assay type: functional, cell-based; conditions: Homo sapiens;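 further: growth inhibition of the cancer cell line, assessed with a cell viability assay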
Description: SANGER: Inhibition of human NCI-H1993 cell growth in a cell viability assay.

CWR22R = assay: cells; assay type: functional, cell-based; conditions: Homo sapiens, 22Rv1;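 further: growth inhibition of 22Rv1 cells, read out with a cell viability assay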
Description: SANGER: Inhibition of human 22RV1 cell growth in a cell viability assay.

MHH-CALL-2 = assay: cells; assay type: functional, cell-based, Homo sapiens; conditions: Homo sapiens, MHH-CALL-2;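 further: growth inhibition of the cell line, read out in a cell viability assay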
Description: SANGER: Inhibition of human MHH-CALL-2 cell growth in a cell viability assay.

LC-1F = assay: cells; assay type: functional, cell-based, Homo sapiens; conditions: Homo sapiens, LC-1F;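 further: growth inhibition of human LC-1F cells, read out with a cell viability assay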
Description: SANGER: Inhibition of human LC-1F cell growth in a cell viability assay.

ASPC1 = assay: cells; assay type: functional, cell-based; conditions: Homo sapiens;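 further: growth inhibition of AsPC-1 cells, read out with a cell viability assay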
Description: SANGER: Inhibition of human AsPC-1 cell growth in a cell viability assay.

HCT-116 = assay: cells; assay type: functional, cell-based; conditions: Homo sapiens
Description: SANGER: Inhibition of human HCT-116 cell growth in a cell viability assay.

HMV-2 cell line = assay: cells; assay type: functional, cell-based; conditions: Homo sapiens;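 further: growth inhibition of HMV-II cells, read out with a cell viability assay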
Description: SANGER: Inhibition of human HMV-II cell growth in a cell viability assay.

WM-115 = assay: cells; assay type: functional, cell-based; conditions: Homo sapiens
Description: SANGER: Inhibition of human WM-115 cell growth in a cell viability assay.

SW1783 = assay: cells; assay type: functional, cell-based; conditions: Homo sapiens
Description: SANGER: Inhibition of human SW1783 cell growth in a cell viability assay.

MDA-MB-361 = assay: cells; assay type: functional, cell-based; conditions: Homo sapiens
NCI-H1651 = assay: cells; assay type: functional, cell-based; conditions: Homo sapiens;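 further: Read-out is a cell viability assay, with IC50 expressing inhibition of NCI-H1651 cell growth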
Description: SANGER: Inhibition of human NCI-H1651 cell growth in a cell viability assay.

U-698-M = assay: cells; assay type: functional, cell-based, Homo sapiens; conditions: Homo sapiens, U-698-M
Description: SANGER: Inhibition of human U-698-M cell growth in a cell viability assay.

8505C = assay: cells; assay type: functional, cell-based; conditions: Homo sapiens
Description: SANGER: Inhibition of human 8505C cell growth in a cell viability assay.

PA-1 = assay: cells; assay type: functional, cell-based; conditions: Homo sapiens;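 further: IC50 for suppression of PA-1 cell proliferation, determined with a cell viability read-out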
Description: SANGER: Inhibition of human PA-1 cell growth in a cell viability assay.

T-24 = assay: cells; assay type: functional, cell-based; conditions: Homo sapiens;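 further: growth inhibition of T-24 cells, read out with a cell viability assay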
Description: SANGER: Inhibition of human T-24 cell growth in a cell viability assay.

BC1 cell line = assay: SANGER: Inhibition of human BC-1 cell growth in a cell viability assay.; assay type: functional, cell-based; conditions: Homo sapiens, BC1
HCC1937 = assay: cells; assay type: functional, cell-based; conditions: Homo sapiens;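 further: growth inhibition measured with a cell viability read-out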
Description: SANGER: Inhibition of human HCC1937 cell growth in a cell viability assay.

MKN-1 = assay: cells; assay type: functional, cell-based; conditions: Homo sapiens;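 further: growth inhibition of human MKN1 cells, read out by a cell viability measurement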
Description: SANGER: Inhibition of human MKN1 cell growth in a cell viability assay.

NCI-H1792 = assay: cells; assay type: functional, cell-based; conditions: Homo sapiens;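 further: growth inhibition of human NCI-H1792 cells, read out as cell viability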
Description: SANGER: Inhibition of human NCI-H1792 cell growth in a cell viability assay.

EFO-21 = assay: cells; assay type: functional, cell-based; conditions: Homo sapiens;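 further: growth inhibition of EFO-21 cells measured with a viability assay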
Description: SANGER: Inhibition of human EFO-21 cell growth in a cell viability assay.

HT1197 = assay: cells; assay type: functional, cell-based, HT-1197; conditions: Homo sapiens
Description: SANGER: Inhibition of human HT-1197 cell growth in a cell viability assay.

BEN = assay: cells; assay type: functional, cell-based; conditions: Homo sapiens;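 further: growth inhibition of the BEN cell line, read out with a cell viability assay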
Description: SANGER: Inhibition of human BEN cell growth in a cell viability assay.

YKG-1 = assay: cells; assay type: functional, cell-based; conditions: Homo sapiens;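 further: cell growth inhibition, read out with a viability assay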
Description: SANGER: Inhibition of human YKG-1 cell growth in a cell viability assay.

SK-HEP1 = assay: cells; assay type: functional, cell-based, SK-HEP-1; conditions: Homo sapiens;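 further: cell viability readout used to quantify reduction in proliferation of human SK-HEP-1 cells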
Description: SANGER: Inhibition of human SK-HEP-1 cell growth in a cell viability assay.

OAW-42 = assay: cells; assay type: functional, cell-based; conditions: Homo sapiens;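 further: growth inhibition of OAW-42 cells, read out with a cell viability assay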
Description: SANGER: Inhibition of human OAW-42 cell growth in a cell viability assay.

SR = assay: cells; assay type: functional, cell-based, Homo sapiens; conditions: Homo sapiens, SR
Description: SANGER: Inhibition of human SR cell growth in a cell viability assay.

SK-MM-2 = assay: cells; assay type: functional, cell-based, Homo sapiens; conditions: Homo sapiens, SK-MM-2;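 further: growth inhibition of human SK-MM-2 cells, read out with a cell viability assay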
Description: SANGER: Inhibition of human SK-MM-2 cell growth in a cell viability assay.

LB373-MEL-D = assay: cells; assay type: functional, cell-based, Homo sapiens; conditions: Homo sapiens, LB373-MEL-D;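 further: growth inhibition of the cell line, read out in a cell viability assay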
Description: SANGER: Inhibition of human LB373-MEL-D cell growth in a cell viability assay.

SCC-3 = assay: cells; assay type: functional, cell-based, Homo sapiens; conditions: Homo sapiens, SCC-3;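 further: cell viability assay measuring inhibition of SCC-3 cell growth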
Description: SANGER: Inhibition of human SCC-3 cell growth in a cell viability assay.

AGS = assay: cells; assay type: functional, cell-based; conditions: Homo sapiens;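 further: growth inhibition of AGS cells, determined with a cell viability assay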
Description: SANGER: Inhibition of human AGS cell growth in a cell viability assay.

SNU-C1 = assay: cells; assay type: functional, cell-based, Homo sapiens; conditions: Homo sapiens, SNU-C1;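 further: growth inhibition of SNU-C1 human cells, read out by a cell viability assay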
Description: SANGER: Inhibition of human SNU-C1 cell growth in a cell viability assay.

NCI-H1522 = assay: cells; assay type: functional, cell-based, Homo sapiens; conditions: Homo sapiens, NCI-H1522;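 further: growth inhibition of NCI-H1522 cells, read out with a cell viability assay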
Description: SANGER: Inhibition of human NCI-H1522 cell growth in a cell viability assay.

TALL-1 = assay: cells; assay type: functional, cell-based, Homo sapiens; conditions: Homo sapiens, TALL-1;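 further: growth inhibition of cultured human TALL-1 cells, read out by a cell viability assay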
Description: SANGER: Inhibition of human TALL-1 cell growth in a cell viability assay.

A-431 = assay: cells; assay type: functional, cell-based; conditions: Homo sapiens;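 further: growth inhibition of A-431 cells, determined with a cell viability read-out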
Description: SANGER: Inhibition of human A431 cell growth in a cell viability assay.

HuO-3N1 = assay: cells; assay type: functional, cell-based; conditions: Homo sapiens;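 further: cell viability readout used to measure how strongly compounds suppress proliferation of human HuO-3N1 cells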
Description: SANGER: Inhibition of human HuO-3N1 cell growth in a cell viability assay.

BPH-1 = assay: cells; assay type: functional, cell-based; conditions: Homo sapiens;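 further: cell viability assay measuring growth inhibition of human BPH-1 cells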
Description: SANGER: Inhibition of human BPH-1 cell growth in a cell viability assay.

CAL-85-1 = assay: cells; assay type: functional, cell-based; conditions: Homo sapiens;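 further: growth inhibition of human CAL-85-1 cells, read out with a cell viability assay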
Description: SANGER: Inhibition of human CAL-85-1 cell growth in a cell viability assay.

HC-1 = assay: cells; assay type: functional, cell-based, Homo sapiens; conditions: Homo sapiens, HC-1;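 further: growth inhibition of HC-1 cells measured by a cell viability assay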
Description: SANGER: Inhibition of human HC-1 cell growth in a cell viability assay.

A204 = assay: cells; assay type: functional, cell-based; conditions: Homo sapiens;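 further: growth inhibition of human A204 cells, read out with a cell viability assay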
Description: SANGER: Inhibition of human A204 cell growth in a cell viability assay.

SN12C = assay: cells; assay type: functional, cell-based; conditions: Homo sapiens;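 further: growth inhibition of human SN12C cells, measured by a cell viability assay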
Description: SANGER: Inhibition of human SN12C cell growth in a cell viability assay.

HT-1080 = assay: cells; assay type: functional, cell-based; conditions: Homo sapiens
Description: SANGER: Inhibition of human HT-1080 cell growth in a cell viability assay.

SW1573 = assay: cells; assay type: functional, cell-based; conditions: Homo sapiens;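 further: growth inhibition of SW1573 cells, read out with a cell viability assay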
Description: SANGER: Inhibition of human SW1573 cell growth in a cell viability assay.

769-P = assay: cells; assay type: functional, cell-based; conditions: Homo sapiens
Description: SANGER: Inhibition of human 769-P cell growth in a cell viability assay.

Hs-578T = assay: cells; assay type: functional, cell-based; conditions: Homo sapiens
Description: SANGER: Inhibition of human Hs-578-T cell growth in a cell viability assay.

LN-405 = assay: cells; assay type: functional, cell-based; conditions: Homo sapiens
Description: SANGER: Inhibition of human LN-405 cell growth in a cell viability assay.

Compound: OC[C@H](Cc1ccccc1)Nc1nc(Oc2ccc3c(c2)CCC3)nc2c1ncn2Cc1ccc(-c2ccccc2)cc1
- pIC50 (MDA-MB-134-VI): < 4.99
- pIC50 (EFO-27): < 4.99
- pIC50 (SW1463): < 4.99
- pIC50 (BOKU): < 4.99
- pIC50 (H4): 5.73
- pIC50 (S-117): 5.31
- pIC50 (C-33-A): < 4.99
- pIC50 (NCI-H2052): < 4.99
- pIC50 (NCI-H1694): < 4.99
- pIC50 (SIMA): < 4.99
- pIC50 (NCI-H1693): 5.15
- pIC50 (JIYOYE): < 4.99
- pIC50 (NCI-H1573): < 4.99
- pIC50 (NCI-H1993): < 4.99
- pIC50 (CWR22R): < 4.99
- pIC50 (MHH-CALL-2): < 4.99
- pIC50 (LC-1F): < 4.99
- pIC50 (ASPC1): < 4.99
- pIC50 (HCT-116): < 4.99
- pIC50 (HMV-2 cell line): 5.20
- pIC50 (WM-115): < 4.99
- pIC50 (SW1783): < 4.99
- pIC50 (MDA-MB-361): < 4.99
- pIC50 (NCI-H1651): < 4.99
- pIC50 (U-698-M): < 4.99
- pIC50 (8505C): 5.34
- pIC50 (PA-1): < 4.99
- pIC50 (T-24): < 4.99
- pIC50 (BC1 cell line): < 4.99
- pIC50 (HCC1937): < 4.99
- pIC50 (MKN-1): < 4.99
- pIC50 (NCI-H1792): < 4.99
- pIC50 (EFO-21): < 4.99
- pIC50 (HT1197): < 4.99
- pIC50 (BEN): < 4.99
- pIC50 (YKG-1): 5.15
- pIC50 (SK-HEP1): 5.00
- pIC50 (OAW-42): < 4.99
- pIC50 (SR): < 4.99
- pIC50 (SK-MM-2): < 4.99
- pIC50 (LB373-MEL-D): < 4.99
- pIC50 (SCC-3): < 4.99
- pIC50 (AGS): 5.17
- pIC50 (SNU-C1): 5.37
- pIC50 (NCI-H1522): < 4.99
- pIC50 (TALL-1): < 4.99
- pIC50 (A-431): 5.48
- pIC50 (HuO-3N1): < 4.99
- pIC50 (BPH-1): < 4.99
- pIC50 (CAL-85-1): 5.35
- pIC50 (HC-1): < 4.99
- pIC50 (A204): < 4.99
- pIC50 (SN12C): < 4.99
- pIC50 (HT-1080): 5.29
- pIC50 (SW1573): < 4.99
- pIC50 (769-P): 5.44
- pIC50 (Hs-578T): < 4.99
- pIC50 (LN-405): < 4.99
